Structures are written as SMILES. pKi: −log10 of the molar value. Where a name gives a salt, the structure may show the parent alone.

One assay has as its target T1, FLT3 (Homo sapiens, UniProt P36888).
T1 sequence (P36888 27-993): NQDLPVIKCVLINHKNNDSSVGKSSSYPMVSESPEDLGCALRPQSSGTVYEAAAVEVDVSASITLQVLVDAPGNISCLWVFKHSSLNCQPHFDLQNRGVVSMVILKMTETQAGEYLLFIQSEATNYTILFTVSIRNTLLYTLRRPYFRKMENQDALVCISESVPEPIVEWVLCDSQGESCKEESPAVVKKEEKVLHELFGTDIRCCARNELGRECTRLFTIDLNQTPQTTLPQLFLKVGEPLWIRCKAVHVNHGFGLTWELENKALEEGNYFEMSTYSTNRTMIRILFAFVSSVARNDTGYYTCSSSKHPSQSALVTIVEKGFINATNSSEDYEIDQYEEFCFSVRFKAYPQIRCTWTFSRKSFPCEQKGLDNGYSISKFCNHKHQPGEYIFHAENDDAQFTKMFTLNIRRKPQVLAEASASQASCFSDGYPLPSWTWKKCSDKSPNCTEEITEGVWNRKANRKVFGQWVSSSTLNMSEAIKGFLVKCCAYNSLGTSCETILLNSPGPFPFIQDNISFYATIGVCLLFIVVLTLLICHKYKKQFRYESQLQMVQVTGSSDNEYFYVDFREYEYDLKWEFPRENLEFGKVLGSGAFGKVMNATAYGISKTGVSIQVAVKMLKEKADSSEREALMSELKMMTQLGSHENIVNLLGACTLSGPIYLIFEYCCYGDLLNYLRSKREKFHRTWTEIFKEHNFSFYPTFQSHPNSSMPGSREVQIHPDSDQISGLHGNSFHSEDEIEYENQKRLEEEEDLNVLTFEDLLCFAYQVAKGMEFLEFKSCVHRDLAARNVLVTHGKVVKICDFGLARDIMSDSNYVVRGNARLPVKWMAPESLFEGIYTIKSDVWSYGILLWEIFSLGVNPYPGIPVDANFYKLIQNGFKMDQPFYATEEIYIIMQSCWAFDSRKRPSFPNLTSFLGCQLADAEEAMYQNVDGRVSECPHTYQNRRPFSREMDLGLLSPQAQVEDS
The assay can be described thus: IMAP fluorescence polarization kinase assay, FLT3. Format: biochemical. The following applies: ATP 2.74 μM, enzyme 2.5 nM, 240 minutes, read-out: FLT3 inhibitory constant (Ki). As to the method:
(§1) Activities of compounds against each of TYRO3, AXL, and MERTK as well as against FLT3, were determined using an immobilized metal ion affinity-based fluorescence polarization (“IMAP”) assay. A fluorescently-labeled substrate peptide was phosphorylated in the kinase reaction, after which a binding solution containing large trivalent metal-based nanoparticles was added and the phosphorylated substrate binds to these beads. This reduces the rotational speed of the substrate which is then detected using fluorescence polarization as a read-out.
(§2) The substrates used for each enzyme are as follows: AXL: 5F1-KKKKEEIYFFFG-NH2(SEQ ID NO:1); FLT3: 5F1-KKKKEEIYFFF-NH2 (SEQ ID NO:2); MERTK: 5F1-EFPIYDFLPAKKK-NH2 (SEQ ID NO:3); and TYRO3: 5F1-EFPIYDFLPAKKK-NH2 (SEQ ID NO:4).
(§3) This assay was performed in a 384-well, polystyrene microplate in a final volume of 8 μl. Substrate (final concentration=400 nM), ATP (final concentrations=24.7μM for AXL; 2.74 μM for FLT3; 2.69 μM for MERTK; and 54.0 μM for TYRO3), compounds and enzyme (final concentrations=2.5 nM for AXL, FLT3 and TYRO3; 1.5 nM for MERTK) were pipetted in this order into the appropriate reaction buffer (AXL: 50 mM HEPES, pH 8.0, 1 mM DTT, 10 mM MgCl2, 0.01% BRU35, 0.01% Triton X-100; FLT3: 50 mM HEPES, pH 8.0, 1 mM DTT, 10 mM MgCl2, 0.01% Triton X-100, 0.01% NP40; MERTK/TYRO3: 50 mM HEPES, pH 8.0, 1 mM DTT, 10 mM MgCl2, 0.01% Triton X-100) and incubated at room temperature for varying times (AXL, FLT3 and MERTK: 240 minutes; TYRO3: 60 minutes). IMAP binding solution was then dispensed, the plate incubated for 60 minutes at room temperature and the fluorescence polarization measured. Data were analyzed using XLfit.

A further assay deals with T2, MERTK (Homo sapiens, UniProt Q12866).
T2 sequence (Q12866 21-999): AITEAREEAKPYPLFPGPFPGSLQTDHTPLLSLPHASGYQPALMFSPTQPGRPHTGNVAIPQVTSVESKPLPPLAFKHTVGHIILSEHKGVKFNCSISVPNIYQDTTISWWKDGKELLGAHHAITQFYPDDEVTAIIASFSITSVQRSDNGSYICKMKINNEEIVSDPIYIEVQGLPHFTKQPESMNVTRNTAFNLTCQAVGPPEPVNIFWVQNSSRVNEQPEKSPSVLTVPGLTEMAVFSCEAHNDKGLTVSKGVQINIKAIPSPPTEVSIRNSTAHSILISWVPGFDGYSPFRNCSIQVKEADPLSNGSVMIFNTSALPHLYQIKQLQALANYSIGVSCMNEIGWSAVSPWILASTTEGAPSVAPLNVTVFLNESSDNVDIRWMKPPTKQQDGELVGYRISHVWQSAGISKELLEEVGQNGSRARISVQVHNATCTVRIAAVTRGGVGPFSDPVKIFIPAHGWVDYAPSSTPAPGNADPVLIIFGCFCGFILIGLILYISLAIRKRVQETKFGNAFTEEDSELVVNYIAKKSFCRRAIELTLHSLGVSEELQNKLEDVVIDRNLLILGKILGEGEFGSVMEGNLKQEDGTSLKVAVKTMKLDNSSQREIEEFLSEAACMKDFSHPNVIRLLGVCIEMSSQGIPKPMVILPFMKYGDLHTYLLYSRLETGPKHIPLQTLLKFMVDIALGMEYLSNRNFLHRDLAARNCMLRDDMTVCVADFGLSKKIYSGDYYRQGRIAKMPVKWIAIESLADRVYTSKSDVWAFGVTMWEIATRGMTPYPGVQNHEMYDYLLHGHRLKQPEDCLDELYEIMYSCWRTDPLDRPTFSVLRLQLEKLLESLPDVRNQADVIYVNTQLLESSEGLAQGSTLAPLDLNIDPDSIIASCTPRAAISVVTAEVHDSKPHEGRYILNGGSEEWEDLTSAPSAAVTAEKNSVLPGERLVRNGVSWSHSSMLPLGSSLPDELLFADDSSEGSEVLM
The assay can be described thus: IMAP fluorescence polarization kinase assay, MERTK. The conditions noted are these: ATP 2.69 μM, enzyme 1.5 nM, 240 minutes, read-out: MERTK inhibitory constant (Ki). Format: biochemical. As to the method:
as §1, §2, §3

As usually defined, the pKi is the negative decadic logarithm of the Ki, by convention in mol/L. With `COCC(C)c1cc2c(N[C@H]3CC[C@H](N)CC3)c(C(=O)Nc3ccc(F)cc3)cnc2[nH]1` (some centres unmarked) [Compound 155], the figures for the pKi at FLT3 and on MERTK were 5.00 to 6.00 and 6.00 to 7.00, respectively.

As to `CCC(C)c1cc2c(N[C@H]3CC[C@H](O)CC3)c(-c3ccc(S(=O)(=O)N4CCOCC4)cn3)cnc2[nH]1` (some centres unmarked) [Compound 159], the values for the pKi at FLT3 and on MERTK were under 5.00 and 5.00 to 6.00, respectively.

Consider `CCCc1cc2c(N[C@H]3CC[C@H](O)CC3)c(C(=O)NC3CCN(c4ncccn4)CC3)cnc2[nH]1` [Compound 104], for which the pKi was 6.00 to 7.00 on FLT3 and over 7.00 at MERTK.

Regarding `CCCc1cc2c(N[C@H]3CC[C@H](N)CC3)c(C(=O)Nc3ccc(F)cc3)cnc2[nH]1` [Compound 100, 4-(((1r,4r)-4-aminocyclohexyl)amino)-N-(4-fluorophenyl)-2-propyl-1H-pyrrolo [2,3-b]pyridine-5-carboxamide hydrochloride], the pKi on FLT3 and at MERTK was over 7.00 in each case.

With `CCCc1cc2c(N[C@H]3CC[C@H](O)CC3)c(-c3ccc(CN4CCOCC4)cn3)cnc2[nH]1` [Compound 105], the pKi on FLT3 and on MERTK was over 7.00 in each case.

Consider `CCCc1cc2c(N[C@H]3CC[C@H](N)CC3)c(-c3nccs3)cnc2[nH]1` [Compound 117], for which the pKi at FLT3 and on MERTK was over 7.00 throughout.

Regarding `CCCc1cc2c(N[C@H]3CC[C@H](N)CC3)c(-c3ccnc(N)n3)cnc2[nH]1` [Compound 123], the pKi at FLT3 and at MERTK was over 7.00 in each case.

(Values after patent publication US20200071326A1, “TAM KINASE INHIBITORS” (Syros Pharmaceuticals, Inc., priority 2017, published 2020).)
